Reference: patent US4212866A, “Pharmaceutically active derivatives of 9-[3-(4-amino-piperidino)-propyl]-adenines” (Boehringer Mannheim GmbH, priority 1978, dated 1980)

System: passive cutaneous anaphylactic reaction
Experiment: inhibition of the passive cutaneous anaphylactic (PCA) reaction in rats induced by reaginic antibodies to egg albumin
Assay type: in vivo
Details: Rattus norvegicus, iv, intravenously immediately before antigen
Description: Diethylcarbamazin, i.e. 1-diethylcarbamoyl-4-methylpiperazine, was used as a comparison compound. Specifically, tests were run as follows:
Serum containing reaginic (IgE-like) antibody to egg albumin was prepared by injecting rats intramuscularly with 0.1 ml of a solution of the antigen (10 mg/ml) in saline together with 0.5 ml of Bordetella pertussis vaccine (Behring; 2×10^10 organisms/ml). 9-14 Days later the animals were bled from the abdominal aorta; the serum was pooled and stored at -20° C. until required. The titer of the serum, i.e. the highest dilution inducing passive cutaneous anaphylaxis (PCA) in the rat following a 48-hour latent period, was between 1:8 and 1:32. For use in these experiments the serum was diluted 1:24.
The animals were anesthetized with 2,2-dichloro-1,1-difluoroethyl-methyl ether, sold under the trademark Penthrane, and were sensitized by injecting 0.1 ml of the antiserum into the shaved abdominal flanks. After 48 hours for reaginic PCA, the animals were given an intravenous injection of 1 ml of saline solution containing 0.5% by weight of egg albumin and 0.25% by weight of Evans Blue.
After having killed and exsanguinated the animals, the size in square millimeters and the intensity, in arbitary scores, of the resulting blue spot were determined. The product of these two parameters was used to determine the degree of the reaction and the degree of reaction with no active material was taken as the standard against which to measure % inhibition of the anaphylactic reaction.
6 Animals were used per dose level and for control.
The test material was injected intravenously immediately before the antigen, using a solution in water containing 0.5% HCl and 2% of dimethylformamide. For comparative purposes there was also tested diethylcarbamoyl-4-methylpiperazine sold under the tradename Diethylcarbamazin. The volumes of the injections were varied to give the indicated dosage of the active material. The results obtained were as follows:
PCA Reaction in Rats Induced by Reaginic Antibodies
(Ovalbumin 2×cryst, and Bord. pertussis 2×10^10) Active material applied intravenously immediately before antigen.

Row | SMILES | inhibition in vivo at 1.5 mg/kg | further results
1 | CCN(CC)C(=O)N1CCN(C)CC1 [Diethylcarbamazin, 1-diethylcarbamoyl-4-methylpiperazine, reference compound] |  | inhibition in vivo at 60 mg/kg (60.0 mg/kg): 58%
2 | Nc1ncnc2c1ncn2CCCN1CCC(NC(=O)c2ccc(F)cc2)CC1 [Example 2b, 9-{3-[4-(4-Fluorobenzamido)-piperidino]-propyl}-adenine] | 65% | 
3 | Cc1ccccc1C(=O)NC1CCN(CCCn2cnc3c(N)ncnc32)CC1 [Example 2e, 9-{3-[4-(2-Methyl-benzamido)-piperidino]-propyl}-adenine] | 39% | 
4 | Cc1ccc(C(=O)NC2CCN(CCCn3cnc4c(N)ncnc43)CC2)cc1 [Example 2f, 9-{-[4-(4-Methyl-benzamido)-piperidio]-propyl}-adenine] | 74% | 
5 | O=C(NC1CCN(CCCn2cnc3c(NCCO)ncnc32)CC1)c1ccccc1 [Example 2j, N^6-(2-Hydroxyethyl)-9-[3-(4-benzamido-piperidino)-propyl] adenine] |  | inhibition in vivo at 0.75 mg/kg: 44%
6 | CCCCNc1ncnc2c1ncn2CCCN1CCC(NC(=O)c2ccccc2)CC1 [Example 2k, N^6-n-Butyl-9-[3-(4-Benzamido-piperidino)-propyl]-adenine] |  | inhibition in vivo at 0.75 mg/kg: 41%
7 | CN(C)c1ncnc2c1ncn2CCCN1CCC(NC(=O)c2ccccc2)CC1 [Example 2l, 6-Dimethylamino-9-[3-(4-benzamido-piperidino)-propyl]-purine] | 43% | 
8 | O=C(NC1CCN(CCCn2cnc3c(N4CCCCC4)ncnc32)CC1)c1ccccc1 [Example 2m, 6-Piperidino-9-[3-(4-benzamido-piperidino)-propyl]-purine] | 36% | 
9 | Nc1ncnc2c1ncn2CCCN1CCC(NC(=O)c2ccc(Cl)cc2)CC1 [Example 4a, 9-{3-[4-(4-Chlorobenzamido)-piperidino]-propyl}-adenine] | 80% | 
10 | Nc1ncnc2c1ncn2CCCN1CCC(NC(=O)Cc2ccccc2)CC1 [Example 4d, 9-{3-[4-(Phenyl-acetamido)-piperidino]-propyl}-adenine] | 30% | 
11 | Nc1ncnc2c1ncn2CCCN1CCC(NC(=O)c2ccco2)CC1 [Example 4f, 9-{3-[4-(Furan-2-carbonylamido)-piperidino]-propyol}-adenine] | 44% | 
